Consider 26 compounds from patent US10071086B2, “1H-pyrazolo[3,4-b]pyridines and therapeutic uses thereof” (Samumed, LLC, priority 2012, dated 2018).

For this assay, the system named is Wnt pathway. As to the kind of experiment: Wnt activity reporter assay (SP5 promoter-luciferase in SW480 cells). The format is cell-based. The settings on record: Homo sapiens, SP5 promoter firefly luciferase reporter, read-out: Wnt inhibition. The source says:
The above synthesized compounds were screened using the assay procedure for Wnt activity described below.
Reporter cell lines can be generated by stably transducing cells of cancer cell lines (e.g., colon cancer) with a lentiviral construct that include a wnt-responsive promoter driving expression of the firefly luciferase gene.
Lentiviral constructs can be made in which the SP5 promoter, a promoter having eight TCF/LEF binding sites derived from the SP5 promoter, is linked upstream of the firefly luciferase gene. The lentiviral constructs can also include a hygromycin resistance gene as a selectable marker. The SP5 promoter construct can be used to transduce SW480 cells, a colon cancer cell line having a mutated APC gene that generates a truncated APC protein, leading to de-regulated accumulation of β-catenin.
Cultured SW480 cells bearing a reporter construct can be distributed at approximately 10,000 cells per well into 96 well or 384 well plates. Compounds from a small molecule compound library can then be added to the wells in half-log dilutions using a ten micromolar top concentration. A series of control wells for each cell type receive only buffer and compound solvent. Twenty-four to forty hours after the addition of compound, reporter activity for luciferase can be assayed, for example, by addition of the BrightGlo luminescence reagent (Promega) and the Victor3 plate reader (Perkin Elmer). Readings can be normalized to DMSO only treated cells, and normalized activities can then be used in the IC50 calculations.

Turning to `O=C(Nc1cncc(-c2cnc3[nH]nc(-c4nc5c(-c6cccc(F)c6)cncc5[nH]4)c3c2)c1)C(F)(F)F` [Compound 1, 2,2,2-Trifluoro-N-(5-(3-(7-(3-fluorophenyl)-3H-imidazo[4,5-c]pyridin-2-yl)-1H-pyrazolo[3,4-b]pyridin-5-yl)pyridin-3-yl)acetamide], the IC50 turned out to be 6 nM.

Turning to `CN1CCN(c2cncc(-c3cnc4[nH]nc(-c5nc6c(-c7cccc(F)c7)cncc6[nH]5)c4c3)c2)CC1` [Compound 4, 3-(7-(3-Fluorophenyl)-3H-imidazo[4,5-c]pyridin-2-yl)-5-(5-(4-methylpiperazin-1-yl)pyridin-3-yl)-1H-pyrazolo[3,4-b]pyridine], the IC50 turned out to be 333 nM. Regarding `CN(C)CCNc1cncc(-c2cnc3[nH]nc(-c4nc5c(-c6cccc(F)c6)cncc5[nH]4)c3c2)c1` [Compound 6, N1-(5-(3-(7-(3-Fluorophenyl)-3H-imidazo[4,5-c]pyridin-2-yl)-1H-pyrazolo[3,4-b]pyridin-5-yl)pyridin-3-yl)-N2,N2-dimethylethane-1,2-diamine], the IC50 turned out to be 550 nM.

Take `CCNC(=O)c1cncc2[nH]c(-c3n[nH]c4ncc(-c5cccnc5)cc34)nc12` [Compound 8, N-Ethyl-2-(5-(pyridin-3-yl)-1H-pyrazolo[3,4-b]pyridin-3-yl)-3H-imidazo[4,5-c]pyridine-7-carboxamide]: the IC50 was determined as 8250 nM. Then `Fc1cc(-c2cncc3[nH]c(-c4n[nH]c5ncc(-c6cccnc6)cc45)nc23)cc(N2CCOCC2)c1` [Compound 13, 4-(3-Fluoro-5-(2-(5-(pyridin-3-yl)-1H-pyrazolo[3,4-b]pyridin-3-yl)-3H-imidazo[4,5-c]pyridin-7-yl)phenyl)morpholine], with 172 nM; and `CC(C)N1CCN(c2cc(F)cc(-c3cncc4[nH]c(-c5n[nH]c6ncc(-c7cccnc7)cc56)nc34)c2)CC1` [Compound 15, 3-(7-(3-Fluoro-5-(4-isopropylpiperazin-1-yl)phenyl)-3H-imidazo[4,5-c]pyridin-2-yl)-5-(pyridin-3-yl)-1H-pyrazolo[3,4-b]pyridine], with 326 nM. The value for `Fc1cc(CN2CCCC2)cc(-c2cncc3[nH]c(-c4n[nH]c5ncc(-c6cccnc6)cc45)nc23)c1` [Compound 16, 3-(7-(3-Fluoro-5-(pyrrolidin-1-ylmethyl)phenyl)-3H-imidazo[4,5-c]pyridin-2-yl)-5-(pyridin-3-yl)-1H-pyrazolo[3,4-b]pyridine] was 384 nM; that for `CC(C)N(Cc1cc(F)cc(-c2cncc3[nH]c(-c4n[nH]c5ncc(-c6cccnc6)cc45)nc23)c1)C(C)C` [Compound 17, N-(3-Fluoro-5-(2-(5-(pyridin-3-yl)-1H-pyrazolo[3,4-b]pyridin-3-yl)-3H-imidazo[4,5-c]pyridin-7-yl)benzyl)-N-isopropylpropan-2-amine] was 550 nM; that for `CC1CCN(c2cc(F)cc(-c3cncc4[nH]c(-c5n[nH]c6ncc(-c7cccnc7)cc56)nc34)c2)CC1` [Compound 19, 3-(7-(3-Fluoro-5-(4-methylpiperidin-1-yl)phenyl)-3H-imidazo[4,5-c]pyridin-2-yl)-5-(pyridin-3-yl)-1H-pyrazolo[3,4-b]pyridine] was 499 nM. The value for `CN(C)Cc1cncc(-c2cnc3[nH]nc(-c4nc5c(-c6cncc(F)c6)cncc5[nH]4)c3c2)c1` [Compound 20, 1-(5-(3-(7-(5-Fluoropyridin-3-yl)-3H-imidazo[4,5-c]pyridin-2-yl)-1H-pyrazolo[3,4-b]pyridin-5-yl)pyridin-3-yl)-N,N-dimethylmethanamine] was 10000 nM. Consider `Fc1cc(-c2cncc3[nH]c(-c4n[nH]c5ncc(-c6cccnc6)cc45)nc23)cc(N2CCNCC2)c1` [Compound 21, 3-(7-(3-Fluoro-5-(piperazin-1-yl)phenyl)-3H-imidazo[4,5-c]pyridin-2-yl)-5-(pyridin-3-yl)-1H-pyrazolo[3,4-b]pyridine], for which the IC50 worked out at 167 nM. The value for `CN(C)Cc1cncc(-c2cnc3[nH]nc(-c4nc5c(-c6cc(F)cc(CNS(C)(=O)=O)c6)cncc5[nH]4)c3c2)c1` [Compound 22, N-(3-(2-(5-(5-((Dimethylamino)methyl)pyridin-3-yl)-1H-pyrazolo[3,4-b]pyridin-3-yl)-3H-imidazo[4,5-c]pyridin-7-yl)-5-fluorobenzyl)methanesulfonamide] was 32 nM; that for `Fc1cncc(-c2cncc3[nH]c(-c4n[nH]c5ncc(-c6cccnc6)cc45)nc23)c1` [Compound 23, 3-(7-(5-Fluoropyridin-3-yl)-3H-imidazo[4,5-c]pyridin-2-yl)-5-(pyridin-3-yl)-1H-pyrazolo[3,4-b]pyridine] was 10000 nM.

Take `CN(C)Cc1cncc(-c2cnc3[nH]nc(-c4nc5c(-c6cc(F)cc(N7CCOCC7)c6)cncc5[nH]4)c3c2)c1` [Compound 24, 1-(5-(3-(7-(3-Fluoro-5-morpholinophenyl)-3H-imidazo[4,5-c]pyridin-2-yl)-1H-pyrazolo[3,4-b]pyridin-5-yl)pyridin-3-yl)-N,N-dimethylmethanamine]: the IC50 was 21 nM. The value for `CN(C)Cc1cncc(-c2cnc3[nH]nc(-c4nc5c(-c6cncc(C(F)(F)F)c6)cncc5[nH]4)c3c2)c1` [Compound 25, N,N-Dimethyl-1-(5-(3-(7-(5-(trifluoromethyl)pyridin-3-yl)-3H-imidazo[4,5-c]pyridin-2-yl)-1H-pyrazolo[3,4-b]pyridin-5-yl)pyridin-3-yl)methanamine] was 10000 nM. For `Fc1cccc(-c2cncc3[nH]c(-c4n[nH]c5ncc(-c6cncc(CN7CCCC7)c6)cc45)nc23)c1` [Compound 27, 3-(7-(3-Fluorophenyl)-3H-imidazo[4,5-c]pyridin-2-yl)-5-(5-(pyrrolidin-1-ylmethyl)pyridin-3-yl)-1H-pyrazolo[3,4-b]pyridine], the IC50 came to 1780 nM. On to `Fc1cccc(-c2cncc3[nH]c(-c4n[nH]c5ncc(-c6cncc(CN7CCCCC7)c6)cc45)nc23)c1` [Compound 28, 3-(7-(3-Fluorophenyl)-3H-imidazo[4,5-c]pyridin-2-yl)-5-(5-(piperidin-1-ylmethyl)pyridin-3-yl)-1H-pyrazolo[3,4-b]pyridine], for which the IC50 was found to be 720 nM.

For the compound `O=C(Nc1cncc(-c2cnc3[nH]nc(-c4nc5c(-c6cccc(F)c6)cncc5[nH]4)c3c2)c1)C1CC1` [Compound 114, N-(5-(3-(7-(3-Fluorophenyl)-3H-imidazo[4,5-c]pyridin-2-yl)-1H-pyrazolo[3,4-b]pyridin-5-yl)pyridin-3-yl)cyclopropanecarboxamide], the IC50 came out at 11 nM. The value for `O=C(Cc1ccccc1)Nc1cncc(-c2cnc3[nH]nc(-c4nc5c(-c6ccc(F)cc6)cncc5[nH]4)c3c2)c1` [Compound 128, N-(5-(3-(7-(4-Fluorophenyl)-3H-imidazo[4,5-c]pyridin-2-yl)-1H-pyrazolo[3,4-b]pyridin-5-yl)pyridin-3-yl)-2-phenylacetamide] was 90 nM. The value for `Fc1ccc(-c2cncc3[nH]c(-c4n[nH]c5ncc(-c6cncc(CNCC7CCCC7)c6)cc45)nc23)cc1` [Compound 142, 1-Cyclopentyl-N-((5-(3-(7-(4-fluorophenyl)-3H-imidazo[4,5-c]pyridin-2-yl)-1H-pyrazolo[3,4-b]pyridin-5-yl)pyridin-3-yl)methyl)methanamine] was 645 nM; that for `CCCC(=O)Nc1cncc(-c2cnc3[nH]nc(-c4nc5c(-c6ccccc6F)cncc5[nH]4)c3c2)c1` [Compound 158, N-(5-(3-(7-(2-Fluorophenyl)-3H-imidazo[4,5-c]pyridin-2-yl)-1H-pyrazolo[3,4-b]pyridin-5-yl)pyridin-3-yl)butyramide] was 8 nM. Take `CN(C)Cc1cncc(-c2cnc3[nH]nc(-c4nc5c(-c6cccnc6)cncc5[nH]4)c3c2)c1` [Compound 176, N,N-Dimethyl-1-(5-(3-(7-(pyridin-3-yl)-3H-imidazo[4,5-c]pyridin-2-yl)-1H-pyrazolo[3,4-b]pyridin-5-yl)pyridin-3-yl)methanamine]: the IC50 came out at 1550 nM. `c1cncc(-c2cncc3[nH]c(-c4n[nH]c5ncc(-c6cncc(CN7CCCCC7)c6)cc45)nc23)c1` [Compound 178, 5-(5-(Piperidin-1-ylmethyl)pyridin-3-yl)-3-(7-(pyridin-3-yl)-3H-imidazo[4,5-c]pyridin-2-yl)-1H-pyrazolo[3,4-b]pyridine]: the IC50 worked out at 392 nM. For the compound `CC(C)(C)CC(=O)Nc1cncc(-c2cnc3[nH]nc(-c4nc5c(-c6cccnc6)cncc5[nH]4)c3c2)c1` [Compound 179, 3,3-Dimethyl-N-(5-(3-(7-(pyridin-3-yl)-3H-imidazo[4,5-c]pyridin-2-yl)-1H-pyrazolo[3,4-b]pyridin-5-yl)pyridin-3-yl)butanamide], the IC50 came to 1450 nM. Then `O=C(Nc1cncc(-c2cnc3[nH]nc(-c4nc5c(-c6cccnc6)cncc5[nH]4)c3c2)c1)C1CCCCC1` [Compound 185, N-(5-(3-(7-(Pyridin-3-yl)-3H-imidazo[4,5-c]pyridin-2-yl)-1H-pyrazolo[3,4-b]pyridin-5-yl)pyridin-3-yl)cyclohexanecarboxamide], with 1320 nM. Turning to `Cc1ccncc1-c1cnc2[nH]nc(-c3nc4c(-c5ccncc5)cncc4[nH]3)c2c1` [Compound 192, 5-(4-Methylpyridin-3-yl)-3-(7-(pyridin-4-yl)-3H-imidazo[4,5-c]pyridin-2-yl)-1H-pyrazolo[3,4-b]pyridine], the IC50 was 1050 nM.
